Read-outs that look alike come from different tables or passages of the source.
What was measured:
[1] = biological target: T1, FGF-R4 ECD (Homo sapiens, UniProt P22455); assay: multi-concentration BLI of purified peptides; format: binding; details: purified NNK library peptides
T1 construct: DNA constructs for the extracellular domain (ECD) of human FGF-; HPC4 (C); made in house; host or cells: HEK 293-6E
T1 sequence (P22455 22-369 limits assumed): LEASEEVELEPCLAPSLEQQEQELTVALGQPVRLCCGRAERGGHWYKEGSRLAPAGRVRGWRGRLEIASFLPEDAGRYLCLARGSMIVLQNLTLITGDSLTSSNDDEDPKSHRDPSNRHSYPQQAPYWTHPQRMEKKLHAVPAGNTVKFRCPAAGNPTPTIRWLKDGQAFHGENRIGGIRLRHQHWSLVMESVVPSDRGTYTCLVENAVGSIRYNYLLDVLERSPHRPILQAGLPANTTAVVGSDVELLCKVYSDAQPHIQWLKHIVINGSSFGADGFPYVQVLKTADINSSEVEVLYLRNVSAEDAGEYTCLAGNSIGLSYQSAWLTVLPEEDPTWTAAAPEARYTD
Outline: (§1)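 Biolayer interferometry with biotinylated FGF-R ECD on streptavidin biosensors in PBS pH 7.4, 0.05% Tween-20, 0.01% BSA. Multi-concentration: purified peptide dilution series fitted to a multi-point KD model.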

[2] = biological target: T1, FGF-R4 ECD; assay: single concentration BLI of crude peptides; format: binding; details: crude NNK peptides, single concentration BLI (Table S3); read-out: KD (4)
Outline: (§2)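 BLI, streptavidin sensors loaded with biotinylated receptor ECD. Single-point: ~1 μM crude peptide, PBS pH7.4/0.05% Tween-20/0.01% BSA; association then dissociation in buffer. KD corrected for UPLC-CAD-determined concentration.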

[3] = biological target: T2, FGF-R3C ECD (Homo sapiens, UniProt P22607); assay: biochemical; format: binding; design: DNA constructs for the extracellular domain (ECD) of human FGF-; HPC4 (C); made in house; host or cells: HEK 293-6E
T2 sequence (P22607 23-375 limits assumed): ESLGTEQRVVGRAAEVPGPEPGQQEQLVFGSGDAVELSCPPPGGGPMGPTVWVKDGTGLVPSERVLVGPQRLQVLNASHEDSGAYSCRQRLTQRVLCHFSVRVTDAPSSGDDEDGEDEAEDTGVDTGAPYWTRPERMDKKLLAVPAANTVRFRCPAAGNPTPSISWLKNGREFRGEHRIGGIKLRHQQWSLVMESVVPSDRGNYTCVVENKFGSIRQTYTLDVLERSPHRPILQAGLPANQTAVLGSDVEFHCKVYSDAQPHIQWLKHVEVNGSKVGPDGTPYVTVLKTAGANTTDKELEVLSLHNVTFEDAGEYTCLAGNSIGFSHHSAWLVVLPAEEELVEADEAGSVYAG
Outline: as §2

[4] = biological target: T3, FGF-R1C ECD (Homo sapiens, UniProt P11362); assay: biochemical; format: binding; design: DNA constructs for the extracellular domain (ECD) of human FGF-; HPC4 (C); made in house; host or cells: HEK 293-6E
T3 sequence (P11362 22-376 limits assumed): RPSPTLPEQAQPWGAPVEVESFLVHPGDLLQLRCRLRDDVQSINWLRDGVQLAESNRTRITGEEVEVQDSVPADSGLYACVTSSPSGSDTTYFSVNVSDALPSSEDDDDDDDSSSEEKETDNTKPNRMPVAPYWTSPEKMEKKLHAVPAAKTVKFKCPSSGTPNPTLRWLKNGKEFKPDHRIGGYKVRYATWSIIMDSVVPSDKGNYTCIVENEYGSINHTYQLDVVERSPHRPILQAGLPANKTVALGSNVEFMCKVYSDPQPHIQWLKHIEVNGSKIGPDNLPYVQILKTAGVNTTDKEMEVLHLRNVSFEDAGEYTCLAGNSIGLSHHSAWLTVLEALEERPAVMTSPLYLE
Outline: as §2

[5] = biological target: T4, FGFR4/KLB (Fc-fused human FGF-R4 with beta-klotho) (Homo sapiens, UniProt P22455); assay: AlphaScreen FGF21 competitive binding assay
T4 sequence (P22455 22-369 limits assumed): T1 sequence (P22455 22-369 limits assumed)
Protocol: Alphascreen binding assay
(§3) The competitive binding assay was carried out according to the methods detailed in Hansen. et al using
(§4) AlphaScreen.3 All reagents and samples were prepared in assay buffer: 40mM Hepes, 140mM NaCl, 1mM
(§5) CaCl2, 0,05% Tween20, pH=7.5, 0.1% BSA. In brief, recombinant human beta-klotho (R&D Systems) was
(§6) preincubated for 60 min with the ectodomain, either Fc-fused human FGF-R1alpha(IIIc), FGF-R3alpha(IIIc)
(§7) or FGF-R4 (R&D Systems), and the mixture was added to the test peptides in OptiPlate™ (PerkinElmer).
(§8) Biotinylated FGF21 and heparin were further added to each well. AlphaScreen bead mix (1:1 mix of Protein
(§9) A acceptor beads/ streptavidin-coated donor beads, PerkinElmer) were added to each well incubated
(§10) overnight at RT in the dark, and measured on a plate reader (Envision). Assays were carried out in triplicates
(§11) with concentrations ranging from 3, 10, 30, 100, 300 ,1000 and 3000 nM of peptide. No peptide control
(§12) (media only) was used as a negative control, and unlabeled FGF21 and FGF1 as positive control.
(§13) competing with biotinylated natural FGF21 ligand.

[6] = biological target: T2, FGF-R3C ECD; assay: biochemical
Outline: as §1

[7] = biological target: T3, FGF-R1C ECD; assay: biochemical
Outline: as §1

[8] = biological target: T5, FGFR1c/KLB (Fc-fused human FGF-R1alpha(IIIc) with beta-klotho) (Homo sapiens, UniProt P11362); assay: AlphaScreen FGF21 competitive binding assay
T5 sequence (P11362 22-376 limits assumed): T3 sequence (P11362 22-376 limits assumed)
Protocol: Alphascreen binding assay
as §3, §4, §5, §6, §7, §8, §9, §10, §11, §12, §13

[9] = biological target: T6, FGFR3c/BKL (Fc-fused human FGF-R3alpha(IIIc) with beta-klotho) (Homo sapiens, UniProt P22607); assay: AlphaScreen FGF21 competitive binding assay
T6 sequence (P22607 23-375 limits assumed): T2 sequence (P22607 23-375 limits assumed)
Protocol: Alphascreen binding assay
as §3, §4, §5, §6, §7, §8, §9, §10, §11, §12, §13

| Structure (SMILES) | Kd [1] | Kd [2] | Kd [3] | Kd [4] | IC50 [5] | Kd [6] | Kd [7] | IC50 [8] | IC50 [9] |
| --- | --- | --- | --- | --- | --- | --- | --- | --- | --- |
| CC[C@H](C)[C@@H]1NC(=O)[C@@H](NC(=O)[C@H](CCSC)NC(C)=O)CSSC[C@@H](C(=O)NCC(=O)N[C@@H](CO)C(=O)NCC(=O)N[C@@H](CO)C(=O)N[C@@H](CC(=O)O)C(=O)N[C@@H](Cc2ccc(O)cc2)C(=O)N[C@@H](CCCCN)C(=O)N[C@@H](CC(=O)O)C(=O)N[C@@H](CC(=O)O)C(=O)N[C@@H](CC(=O)O)C(=O)N[C@@H](CC(=O)O)C(=O)N[C@@H](CCCCN)C(N)=O)NC(=O)[C@H](Cc2ccccc2)NC(=O)[C@H]([C@@H](C)CC)NC(=O)[C@H](Cc2ccccc2)NC(=O)[C@@H]2CCCN2C(=O)[C@H](CC(C)C)NC(=O)[C@H](Cc2ccccc2)NC(=O)[C@H](CC(C)C)NC(=O)[C@H](CC(=O)O)NC(=O)[C@H](Cc2ccccc2)NC1=O [3C.1] | > 1000 nM | > 10000 nM | 64 nM | > 10000 nM | > 1000 nM | 95 nM | > 1000 nM | > 1000 nM | 204 nM |
| CC[C@H](C)[C@@H]1NC(=O)[C@@H](NC(=O)[C@H](CCSC)NC(C)=O)CSSC[C@@H](C(=O)NCC(=O)N[C@@H](CO)C(=O)NCC(=O)N[C@@H](CO)C(=O)N[C@@H](CC(=O)O)C(=O)N[C@@H](Cc2ccc(O)cc2)C(=O)N[C@@H](CCCCN)C(=O)N[C@@H](CC(=O)O)C(=O)N[C@@H](CC(=O)O)C(=O)N[C@@H](CC(=O)O)C(=O)N[C@@H](CC(=O)O)C(=O)N[C@@H](CCCCN)C(N)=O)NC(=O)[C@H](Cc2ccccc2)NC(=O)[C@H](CCCNC(=N)N)NC(=O)[C@H](CCCCN)NC(=O)[C@H](Cc2c[nH]cn2)NC(=O)[C@H](C)NC(=O)[C@H](CC(C)C)NC(=O)[C@H](Cc2ccccc2)NC(=O)[C@H](CCSC)NC(=O)[C@H](CCCCN)NC1=O [4.6] | 358 nM | 97 nM | > 10000 nM | > 10000 nM | > 1000 nM | > 1000 nM | > 1000 nM | > 1000 nM | > 1000 nM |
| CC[C@H](C)[C@@H]1NC(=O)[C@@H](NC(=O)[C@@H](N)CCSC)CSSC[C@@H](C(=O)NCC(=O)N[C@@H](CO)C(=O)NCC(=O)N[C@@H](CO)C(=O)N[C@@H](CC(=O)O)C(=O)N[C@@H](Cc2ccc(O)cc2)C(=O)N[C@@H](CCCCN)C(=O)N[C@@H](CC(=O)O)C(=O)N[C@@H](CC(=O)O)C(=O)N[C@@H](CC(=O)O)C(=O)N[C@@H](CC(=O)O)C(=O)N[C@@H](CCCCN)C(N)=O)NC(=O)[C@H](CC(C)C)NC(=O)[C@H](Cc2c[nH]c3ccccc23)NC(=O)[C@H](Cc2ccccc2)NC(=O)[C@H](CC(C)C)NC(=O)[C@@H]2CCCN2C(=O)[C@H](CCC(N)=O)NC(=O)[C@H](CCCNC(=N)N)NC(=O)[C@H](C)NC(=O)[C@@H]2CCCN2C(=O)[C@H](Cc2c[nH]c3ccccc23)NC(=O)[C@H](CCCNC(=N)N)NC1=O [1C.9] | 82 nM | 82 nM | 112 nM | 19 nM | 67 nM | 47 nM | 1 nM | 17 nM | 15 nM |
| CSCC[C@H](N)C(=O)N[C@H]1CSSC[C@@H](C(=O)NCC(=O)N[C@@H](CO)C(=O)NCC(=O)N[C@@H](CO)C(=O)N[C@@H](CC(=O)O)C(=O)N[C@@H](Cc2ccc(O)cc2)C(=O)N[C@@H](CCCCN)C(=O)N[C@@H](CC(=O)O)C(=O)N[C@@H](CC(=O)O)C(=O)N[C@@H](CC(=O)O)C(=O)N[C@@H](CC(=O)O)C(=O)N[C@@H](CCCCN)C(N)=O)NC(=O)[C@H](C(C)C)NC(=O)[C@H](Cc2c[nH]c3ccccc23)NC(=O)[C@H](Cc2ccc(O)cc2)NC(=O)[C@H](CCCNC(=N)N)NC(=O)[C@H](CC(=O)O)NC(=O)[C@H](Cc2ccccc2)NC(=O)[C@H](Cc2c[nH]cn2)NC(=O)[C@H](CCCNC(=N)N)NC(=O)[C@H]([C@@H](C)O)NC(=O)[C@H](Cc2c[nH]c3ccccc23)NC(=O)[C@H](CC(C)C)NC(=O)[C@H](CC(C)C)NC1=O [1C.2] | > 1000 nM | > 10000 nM | > 10000 nM | 95 nM | > 1000 nM | > 1000 nM | 64 nM | 108 nM | > 1000 nM |
| CSCC[C@H](NC(C)=O)C(=O)N[C@H]1CSSC[C@@H](C(=O)NCC(=O)N[C@@H](CO)C(=O)NCC(=O)N[C@@H](CO)C(=O)N[C@@H](CC(=O)O)C(=O)N[C@@H](Cc2ccc(O)cc2)C(=O)N[C@@H](CCCCN)C(=O)N[C@@H](CC(=O)O)C(=O)N[C@@H](CC(=O)O)C(=O)N[C@@H](CC(=O)O)C(=O)N[C@@H](CC(=O)O)C(=O)N[C@@H](CCCCN)C(N)=O)NC(=O)[C@H](C(C)C)NC(=O)[C@H](CC(C)C)NC(=O)[C@H](CC(C)C)NC(=O)[C@H](Cc2c[nH]c3ccccc23)NC(=O)[C@H](Cc2ccc(O)cc2)NC(=O)[C@H](Cc2ccccc2)NC(=O)[C@H](CC(C)C)NC(=O)[C@H](CCCNC(=N)N)NC(=O)[C@H](CCC(=O)O)NC(=O)[C@@H]2CCCN2C1=O [4.7] | 443 nM | 68 nM | > 10000 nM | > 10000 nM | > 1000 nM | > 1000 nM | > 1000 nM | > 1000 nM | > 1000 nM |
| CSCC[C@H](N)C(=O)N[C@H]1CSSC[C@@H](C(=O)NCC(=O)N[C@@H](CO)C(=O)NCC(=O)N[C@@H](CO)C(=O)N[C@@H](CC(=O)O)C(=O)N[C@@H](Cc2ccc(O)cc2)C(=O)N[C@@H](CCCCN)C(=O)N[C@@H](CC(=O)O)C(=O)N[C@@H](CC(=O)O)C(=O)N[C@@H](CC(=O)O)C(=O)N[C@@H](CC(=O)O)C(=O)N[C@@H](CCCCN)C(N)=O)NC(=O)[C@H](Cc2ccccc2)NC(=O)[C@@H]2CCCN2C(=O)[C@H]([C@@H](C)O)NC(=O)[C@H](CC(C)C)NC(=O)[C@H](Cc2c[nH]cn2)NC(=O)[C@H](Cc2c[nH]cn2)NC(=O)[C@H](Cc2ccccc2)NC(=O)[C@H](CC(C)C)NC(=O)[C@H](CCCNC(=N)N)NC(=O)[C@H](Cc2c[nH]c3ccccc23)NC(=O)[C@H](CCCNC(=N)N)NC(=O)[C@H](Cc2ccccc2)NC1=O [1C.10] | 73 nM | 79 nM | > 10000 nM | 50 nM | 283 nM | > 1000 nM | 101 nM | 84 nM | > 1000 nM |

— publication PMC10763615, “Identification and engineering of potent cyclic peptides with selective or promiscuous binding through biochemical profiling and bioinformatic data analysis” (RSC Chemical Biology, 2023)
